# From patent publication US20130267484A1, “TREATMENT OF RHEUMATOID ARTHRITIS WITH MASITINIB” (AB SCIENCE, priority 2010, published 2013)
# Tested on: DMARD-refractory active RA
# Experiment: Phase 2a trial of masitinib in DMARD-refractory active RA: efficacy (ACR, ACRn, CRP, DAS28)
# Type: in vivo, Human
# Design: ACRn Mean ± SD / ACRn Median: unit not given here
# Description: The main exclusion criteria were patients with: inadequate bone marrow function, defined as an absolute neutrophil count ≦2.5×10^9/litre, and platelets ≦100×10^9/litre; active current infection, history of infection requiring hospitalisation, history of recurrent infections, or treatment with antibiotics within 2 weeks of screening. Treatment wash-out periods observed prior to entry to the study were: a) DMARD use within 4 weeks; b) five half-lives, or wash-out in accordance for a specific drug, whichever is longer; c) any live (attenuated) vaccines taken within 4 weeks; d) use of more than one NSAID or its dosage change within 4 weeks; e) prednisone or equivalent corticosteroid dosage >10 mg/day or any dosage change within 4 weeks; and f) prednisone or equivalent corticosteroid dosage >20 mg administered via intra-articular injection, bolus intramuscular or intravenous treatment within 4 weeks. Other exclusion criteria included any previous use of recombinant interleukin-1 receptor antagonist (IL1-Ra) and patients who were pregnant or nursing.
# Efficacy data are presented using descriptive statistics, contrasting initial dosage groups or according to previous DMARD failure. For comparison of groups according to initial dosage on a continuous variable, Student test (with Satterwhaite correction for unequal variance) or Wilcoxon test were used when normality was not rejected or rejected, respectively (normality determined via the Shapiro-Wilk test). For the same comparison on a qualitative variable, Chi-square or Fisher Exact test (if the Chi-square hypotheses were not filled) were used. The rate of patients achieving the various ACR response variables after 12 weeks of treatment (remission rate) are presented in terms of percentage and number of patients. Patients were assigned to either 3 or 6 mg/kg/day treatment groups based upon a randomisation schedule generated for packaging and labelling by the Biostatistics Section of AB Science. Individual treatment doses to be administered were supplied in sealed envelopes to be opened by the investigator at time of inclusion. Patients received the treatment from the investigator on an open basis.
# Due to the relatively high patient drop-out rate of this study, analysis was conducted on two different datasets: one with an imputation of missing values according to the last observation carried forward (LOCF) methodology and the other in the absence of data imputation, i.e. the observed cases (OC). Analysis for efficacy was performed on a modified Intention-To-Treat (ITT) population and Per Protocol (PP) population. […] The PP population was defined as a subgroup of the ITT population that in addition had presented no major protocol deviations and had completed at least 28 days of treatment exposure.
# [1] = Total population (n = 40), ITT population
# [2] = W 24, extension phase, ITT population, n = 4
# [3] = W 24, extension phase, ITT population, n = 7
# [4] = W 36, extension phase, ITT population, n = 5
# [5] = W 36, extension phase, ITT population, n = 9
# [6] = W 36, extension phase, ITT population, n = 12
# [7] = W 48, extension phase, ITT population, n = 6
# [8] = W 48, extension phase, ITT population, n = 8
# [9] = W 48, extension phase, ITT population, n = 9
# [10] = W 60, extension phase, ITT population, n = 7
# [11] = W 60, extension phase, ITT population, n = 8
structure (smiles),measurement,setting,value
"Cc1ccc(NC(=O)c2ccc(CN3CCN(C)CC3)cc2)cc1Nc1nc(-c2cccnc2)cs1 [masitinib, 4-(4-methylpiperazin-1-ylmethyl)-N-[4-methyl-3-(4-pyridin-3ylthiazol-2-ylamino)phenyl]benzamide]",Non-responders (failed to reach ACR20) after dose augmentation,"3 mg/kg/day group, 12 patients augmented at weeks 4 or 8",42%
same,Patients with improved response after dose augmentation,"3 mg/kg/day group, 12 patients augmented at weeks 4 or 8, initial 12-week phase",58%
same,Dose response analyses: dose level,6 mg/kg/day,most potent
same,Highest response rate for the ACR50 threshold by dose at first response,"5/15, dosage not given",33.3%
same,"Time to first response ACR20, Mean ± SD",[1],46.3 ± 22.4 days
same,"Time to first response ACR20, Median",[1],35.0 days
same,"Time to first response ACR20, Min-Max",[1],28.0 to 105.0 days
same,"Time to first response ACR50, Mean ± SD",[1],89.1 ± 58.2 days
same,"Time to first response ACR50, Median",[1],84.0 days
same,"Time to first response ACR50, Min-Max",[1],28.0 to 217.0 days
same,"DAS28 <2.6, patients","W 12, ITT population, n = 24",1 (4.%)
same,DAS28 Mean ± SD,"W 12, ITT population, n = 24",4.6 ± 1.3
same,DAS28 Median,"W 12, ITT population, n = 24",4.4
same,DAS28 Min-Max,"W 12, ITT population, n = 24",0.5-7.0
same,"DAS28 ≦3.2, patients","W 12, ITT population, n = 24",1 (4%)
same,"ACR20, patients reaching level","W 12, ITT population, n = 27",15 (56%)
same,"ACR50, patients reaching level","W 12, ITT population, n = 27",9 (33%)
same,"ACR70, patients reaching level","W 12, ITT population, n = 27",3 (11%)
same,"ACR90, patients reaching level","W 12, ITT population, n = 27",0 (0%)
same,ACRn Mean ± SD,"W 12, ITT population, n = 27",31.6 ± 33.5
same,ACRn Median,"W 12, ITT population, n = 27",42.9
same,ACRn Min-Max,"W 12, ITT population, n = 27",−40.0-87.5
same,"CRP 0% < Improvement ≦25%, patients","W 12, ITT population, n = 28",5 (18%)
same,"CRP 25% < Improvement ≦50%, patients","W 12, ITT population, n = 28",3 (11%)
same,"CRP Deterioration, patients","W 12, ITT population, n = 28",3 (11%)
same,"CRP Improvement >50%, patients","W 12, ITT population, n = 28",14 (50%)
same,"CRP Stable, patients","W 12, ITT population, n = 28",3 (11%)
same,"DAS28 <2.6, patients",[2],0 (0%)
same,DAS28 Mean ± SD,[2],5.2 ± 1.7
same,DAS28 Median,[2],4.9
same,DAS28 Min-Max,[2],3.6-7.5
same,"DAS28 ≦3.2, patients",[2],0 (0%)
same,"ACR20, patients reaching level",[3],6 (86%)
same,"ACR50, patients reaching level",[3],2 (27%)
same,"ACR70, patients reaching level",[3],1 (14%)
same,"ACR90, patients reaching level",[3],0 (0%)
same,ACRn Mean ± SD,[3],36.0 ± 29.0
same,ACRn Median,[3],40.7
same,ACRn Min-Max,[3],−16.7-73.0
same,"CRP 0% < Improvement ≦25%, patients",[3],1 (14%)
same,"CRP 25% < Improvement ≦50%, patients",[3],0 (0%)
same,"CRP Deterioration, patients",[3],0 (0%)
same,"CRP Improvement >50%, patients",[3],5 (71%)
same,"CRP Stable, patients",[3],1 (14%)
same,"DAS28 <2.6, patients",[4],1 (20%)
same,DAS28 Mean ± SD,[4],4.4 ± 1.9
same,DAS28 Median,[4],4.1
same,DAS28 Min-Max,[4],2.3-7.5
same,"DAS28 ≦3.2, patients",[4],1 (20%)
same,"ACR20, patients reaching level",[5],7 (78%)
same,"ACR50, patients reaching level",[5],4 (44%)
same,"ACR70, patients reaching level",[5],2 (22%)
same,"ACR90, patients reaching level",[5],1 (11%)
same,ACRn Mean ± SD,[5],45.9 ± 32.3
same,ACRn Median,[5],45.5
same,ACRn Min-Max,[5],−3.8-93.3
same,"CRP 0% < Improvement ≦25%, patients",[6],1 (8%)
same,"CRP 25% < Improvement ≦50%, patients",[6],1 (8%)
same,"CRP Deterioration, patients",[6],0 (0%)
same,"CRP Improvement >50%, patients",[6],9 (75%)
same,"CRP Stable, patients",[6],1 (8%)
same,"DAS28 <2.6, patients",[7],0 (0%)
same,DAS28 Mean ± SD,[7],4.7 ± 2.1
same,DAS28 Median,[7],4.4
same,DAS28 Min-Max,[7],2.7-8.7
same,"DAS28 ≦3.2, patients",[7],2 (33%)
same,"ACR20, patients reaching level",[8],5 (63%)
same,"ACR50, patients reaching level",[8],3 (38%)
same,"ACR70, patients reaching level",[8],1 (13%)
same,"ACR90, patients reaching level",[8],0 (0%)
same,ACRn Mean ± SD,[8],30.9 ± 36.7
same,ACRn Median,[8],40.0
same,ACRn Min-Max,[8],−20.0-70.9
same,"CRP 0% < Improvement ≦25%, patients",[9],1 (11%)
same,"CRP 25% < Improvement ≦50%, patients",[9],0 (0%)
same,"CRP Deterioration, patients",[9],2 (22%)
same,"CRP Improvement >50%, patients",[9],6 (67%)
same,"CRP Stable, patients",[9],0 (0%)
same,"CRP 0% < Improvement ≦25%, patients",[10],1 (14%)
same,"CRP 25% < Improvement ≦50%, patients",[10],3 (43%)
same,"CRP Deterioration, patients",[10],0 (0%)
same,"CRP Improvement >50%, patients",[10],3 (43%)
same,"CRP Stable, patients",[10],0 (0%)
same,"DAS28 <2.6, patients",[10],4 (57%)
same,DAS28 Mean ± SD,[10],3.3 ± 1.5
same,DAS28 Median,[10],2.6
same,DAS28 Min-Max,[10],1.7-5.3
same,"DAS28 ≦3.2, patients",[10],4 (57%)
same,"ACR20, patients reaching level",[11],6 (75%)
same,"ACR50, patients reaching level",[11],6 (75%)
same,"ACR70, patients reaching level",[11],3 (38%)
same,"ACR90, patients reaching level",[11],2 (25%)
same,ACRn Mean ± SD,[11],58.3 ± 31.4
